Measured values published in patent publication US11878975B2, “Substituted indole compounds useful as TLR inhibitors” (BRISTOL-MYERS SQUIBB COMPANY, priority 2017, dated 2024).

How the values were obtained:
Assay type in all cases: cell-based
[1] = target: T1, human TLR8 (Homo sapiens, UniProt Q9NR97); experiment: TLR8 inhibition reporter assay (HEK-Blue cells, SEAP reporter, R848 stimulation); conditions: HEK-Blue cells overexpressing human TLR8, SEAP reporter, R848 15.9 μM
T1 construct: host or cells: HEK-Blue cells
T1 sequence (Q9NR97 27-1041): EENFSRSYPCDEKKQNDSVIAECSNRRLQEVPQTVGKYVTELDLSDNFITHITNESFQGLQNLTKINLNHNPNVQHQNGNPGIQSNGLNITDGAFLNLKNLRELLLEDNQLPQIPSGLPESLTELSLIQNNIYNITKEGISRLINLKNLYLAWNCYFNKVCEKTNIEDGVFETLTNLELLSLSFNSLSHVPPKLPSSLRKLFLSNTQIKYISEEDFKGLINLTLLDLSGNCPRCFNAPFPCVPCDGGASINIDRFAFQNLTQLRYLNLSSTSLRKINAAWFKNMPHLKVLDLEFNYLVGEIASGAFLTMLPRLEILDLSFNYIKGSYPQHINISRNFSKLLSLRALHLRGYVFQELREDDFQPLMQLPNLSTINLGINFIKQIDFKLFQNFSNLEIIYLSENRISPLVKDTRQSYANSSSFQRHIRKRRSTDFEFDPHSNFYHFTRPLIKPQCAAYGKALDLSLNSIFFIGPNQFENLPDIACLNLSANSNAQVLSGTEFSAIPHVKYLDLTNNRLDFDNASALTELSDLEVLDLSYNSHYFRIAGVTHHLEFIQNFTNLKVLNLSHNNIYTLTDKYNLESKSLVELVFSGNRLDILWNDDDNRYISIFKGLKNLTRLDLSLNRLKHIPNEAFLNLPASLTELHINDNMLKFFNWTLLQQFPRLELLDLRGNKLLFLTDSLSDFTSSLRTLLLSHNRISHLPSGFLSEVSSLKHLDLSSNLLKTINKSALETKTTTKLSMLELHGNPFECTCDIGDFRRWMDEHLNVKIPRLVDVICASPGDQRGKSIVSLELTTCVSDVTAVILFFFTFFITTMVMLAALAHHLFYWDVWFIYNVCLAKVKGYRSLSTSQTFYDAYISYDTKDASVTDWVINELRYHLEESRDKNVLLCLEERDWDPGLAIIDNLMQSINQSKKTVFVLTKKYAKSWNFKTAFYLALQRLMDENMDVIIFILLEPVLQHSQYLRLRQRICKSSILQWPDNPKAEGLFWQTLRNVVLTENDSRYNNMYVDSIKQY
Outline: (§1)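 SEAP readout after 22 h agonist exposure at 37 °C; final agonist levels were 7.5 μM gardiquimod (TLR7), 15.9 μM R848 (TLR8) and 5 nM ODN2006 (TLR9). Inhibitors, spanning 0.05 nM to 50 μM final, were applied 30 min beforehand.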

[2] = target: T2, human TLR9 (Homo sapiens, UniProt Q9NR96); experiment: TLR9 inhibition reporter assay (HEK-Blue cells, SEAP reporter, ODN2006 stimulation); conditions: HEK-Blue cells overexpressing human TLR9, SEAP reporter, ODN2006 5 nM
T2 construct: host or cells: HEK-Blue cells
T2 sequence (Q9NR96 26-1032): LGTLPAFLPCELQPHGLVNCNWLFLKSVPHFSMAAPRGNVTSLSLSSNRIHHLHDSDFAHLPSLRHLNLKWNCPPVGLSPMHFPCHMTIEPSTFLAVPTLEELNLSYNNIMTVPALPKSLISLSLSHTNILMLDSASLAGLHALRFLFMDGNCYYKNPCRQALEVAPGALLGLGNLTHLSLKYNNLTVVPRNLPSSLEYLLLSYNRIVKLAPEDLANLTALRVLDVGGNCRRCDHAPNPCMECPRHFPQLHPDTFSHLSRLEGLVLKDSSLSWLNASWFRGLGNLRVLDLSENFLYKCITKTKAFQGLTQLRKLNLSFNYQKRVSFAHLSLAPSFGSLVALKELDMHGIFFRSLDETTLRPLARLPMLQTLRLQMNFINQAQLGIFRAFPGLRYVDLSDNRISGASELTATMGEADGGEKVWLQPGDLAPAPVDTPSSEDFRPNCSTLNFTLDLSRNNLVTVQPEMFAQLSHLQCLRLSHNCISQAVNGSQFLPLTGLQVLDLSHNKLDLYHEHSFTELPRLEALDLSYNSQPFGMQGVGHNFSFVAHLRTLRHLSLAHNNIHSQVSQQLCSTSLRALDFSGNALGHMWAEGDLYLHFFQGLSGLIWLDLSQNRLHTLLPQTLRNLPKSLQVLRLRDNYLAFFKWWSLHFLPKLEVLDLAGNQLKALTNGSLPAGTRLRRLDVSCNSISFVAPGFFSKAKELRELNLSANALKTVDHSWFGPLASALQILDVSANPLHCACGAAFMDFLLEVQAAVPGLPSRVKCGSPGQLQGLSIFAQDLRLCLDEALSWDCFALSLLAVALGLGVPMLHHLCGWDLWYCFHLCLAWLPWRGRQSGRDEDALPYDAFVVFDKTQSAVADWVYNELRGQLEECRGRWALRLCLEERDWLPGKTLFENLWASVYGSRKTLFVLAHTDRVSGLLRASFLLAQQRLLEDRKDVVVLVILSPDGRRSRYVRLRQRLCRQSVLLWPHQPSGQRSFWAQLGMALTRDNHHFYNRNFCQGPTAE
Outline: as §1

[3] = target: T3, human TLR7 (Homo sapiens, UniProt Q9NYK1); experiment: TLR7 inhibition reporter assay (HEK-Blue cells, SEAP reporter, gardiquimod stimulation); conditions: HEK-Blue cells overexpressing human TLR7, SEAP reporter, gardiquimod 7.5 μM
T3 construct: host or cells: HEK-Blue cells
T3 sequence (Q9NYK1 27-1049): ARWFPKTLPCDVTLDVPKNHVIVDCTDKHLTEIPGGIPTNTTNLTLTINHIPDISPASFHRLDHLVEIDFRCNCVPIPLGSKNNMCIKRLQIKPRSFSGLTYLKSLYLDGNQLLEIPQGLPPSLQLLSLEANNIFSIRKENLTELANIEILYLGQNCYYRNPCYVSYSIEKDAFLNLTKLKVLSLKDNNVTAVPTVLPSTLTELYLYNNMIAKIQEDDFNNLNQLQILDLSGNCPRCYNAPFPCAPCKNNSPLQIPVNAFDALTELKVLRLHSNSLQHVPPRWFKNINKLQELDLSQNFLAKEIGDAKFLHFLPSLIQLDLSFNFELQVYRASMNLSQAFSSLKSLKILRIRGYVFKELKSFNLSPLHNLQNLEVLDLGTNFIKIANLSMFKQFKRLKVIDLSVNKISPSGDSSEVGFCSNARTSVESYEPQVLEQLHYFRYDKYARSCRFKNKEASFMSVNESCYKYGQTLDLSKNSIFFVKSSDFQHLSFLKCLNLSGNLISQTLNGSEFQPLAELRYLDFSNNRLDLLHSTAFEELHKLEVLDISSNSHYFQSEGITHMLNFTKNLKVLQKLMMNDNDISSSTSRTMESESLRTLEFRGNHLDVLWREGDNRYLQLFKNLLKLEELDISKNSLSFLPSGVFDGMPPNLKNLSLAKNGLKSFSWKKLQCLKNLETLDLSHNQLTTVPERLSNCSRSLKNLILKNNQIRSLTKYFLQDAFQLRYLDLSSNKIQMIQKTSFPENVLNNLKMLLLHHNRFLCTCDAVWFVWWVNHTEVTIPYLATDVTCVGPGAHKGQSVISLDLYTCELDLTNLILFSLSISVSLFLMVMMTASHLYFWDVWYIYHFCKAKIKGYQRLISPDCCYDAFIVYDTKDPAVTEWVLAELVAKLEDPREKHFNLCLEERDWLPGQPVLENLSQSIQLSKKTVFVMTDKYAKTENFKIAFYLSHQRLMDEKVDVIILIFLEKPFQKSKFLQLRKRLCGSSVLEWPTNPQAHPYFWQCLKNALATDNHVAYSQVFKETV
Outline: as §1

SMILES | IC50 [1] [nM] | IC50 [2] [nM] | IC50 [3] [nM]
CNCC(=O)N1CCOC(c2ccc3[nH]c(-c4cc(C)c5ncnn5c4)c(C(C)C)c3c2)C1 (stereo not drawn) [Example 338] | 7.1 | 2050 | 0.78
COc1cc(-c2[nH]c3ccc(C4CCCN(CCS(C)(=O)=O)C4)cc3c2C(C)C)cn2ncnc12 (stereo not drawn) [Example 253] | 4.4 | 6220 | 5
COc1cc(-c2[nH]c3ccc(C4CC(NC5COC5)C4)cc3c2C(C)C)cn2ncnc12 (stereo not drawn) [Example 579] | 0.73 | 7410 | 1
COc1cc(-c2[nH]c3ccc(C4CCC(N(C)C(C)C)C4)cc3c2C(C)C)cn2ncnc12 (single isomer, unassigned) [Example 276, N-isopropyl-3-(3-isopropyl-2-(8-methoxy-[1,2,4]triazolo[1,5-a]pyridin-6-yl)-1H-indol-5-yl)-N-methylcyclopentan-1-amine] | 0.9 | 468 | 0.64
Cc1cc(-c2[nH]c3ccc(CCN4CC[C@@H](F)C4)cc3c2C(C)C)cn(C)c1=O [Example 410] | 0.72 | 15600 | 13
Cc1cc(-c2[nH]c3ccc(C4CCC(C(=O)N5CCN(C)CC5)CC4)cc3c2C(C)C)cn2ncnc12 (single isomer, unassigned) [Example 157] | 2.5 | 6250 | 0.38
COc1cc(-c2[nH]c3ccc(C4CCC(N5CC[C@@H](N(C)C)C5)CC4)cc3c2C(C)C)cn2ncnc12 (stereo partly drawn) [Example 30] | 5 | 824 | 3
CCc1c(-c2ccnc(C)c2)[nH]c2ccc(CNC(=O)CCN(C)C)cc12 [Example 395, 3-(dimethylamino)-N-{[3-ethyl-2-(2-methylpyridin-4-yl)-1H-indol-5-yl]methyl}propanamide] | 182 | 823 | 966
Cc1cc(-c2[nH]c3ccc(C4CN(C5CCS(=O)(=O)CC5)C4)cc3c2C(C)C)cc(C)n1 [Example 270] | 20 | 888 | 14
Cc1c(-c2[nH]c3ccc(C4CC5CNCC5C4)cc3c2C(C)C)cn2cnnc2c1C (stereo not drawn) [Example 519] | 127 | 2510 | 6
COCCN1CCCC(c2ccc3[nH]c(-c4cc(OC)c5ncnn5c4)c(C(C)C)c3c2)C1 (single isomer, unassigned) [Example 252] | 1.6 | 1160 | 2
Cc1cc(-c2[nH]c3ccc(C4CNCCO4)cc3c2C(C)C)cn2ncnc12 (stereo not drawn) [Example 282] | 1 | 3800 | 0.66

Results, then the compound that gave them:

IC50 [1] [nM] | IC50 [2] [nM] | IC50 [3] [nM] | SMILES
2.1 | 2670 | 2 | Cc1cc(-c2[nH]c3ccc(C4CN(C)C(C)(C)CO4)cc3c2C(C)C)cn2ncnc12 (single isomer, unassigned) [Example 376, 2-(3-isopropyl-2-(8-methyl-[1,2,4]triazolo[1,5-a]pyridin-6-yl)-1H-indol-5-yl)-4,5,5-trimethylmorpholine]
2.9 | 5270 | 5 | COc1cc(-c2[nH]c3ccc(CCN4CCCCC4)cc3c2C(C)C)cn2ncnc12 [Example 412]
12 | 20700 | 2 | CNC(=O)CN1CC2CC(c3ccc4[nH]c(-c5cn6ncnc6c(C)c5C)c(C(C)C)c4c3)CC2C1 (stereo not drawn) [Example 510]
2.9 | 1450 | 0.31 | Cc1cc(-c2[nH]c3ccc(C4CN(C(=O)CN(C)C)C4)cc3c2C(C)C)cn2ncnc12 [Example 266, 2-(dimethylamino)-1-(3-(3-isopropyl-2-(8-methyl-[1,2,4]triazolo[1,5-a]pyridin-6-yl)-1H-indol-5-yl)azetidin-1-yl)ethan-1-one]
0.53 | 2880 | 0.35 | Cc1c(-c2[nH]c3ccc(C4CCC(NC5COC5)CC4)cc3c2C(C)C)cn2ncnc2c1C (single isomer, unassigned) [Example 85]
70 | 406 | 541 | CCc1c(-c2ccnc(C)c2)[nH]c2ccc(CNC(=O)C3CCN(C)CC3)cc12 [Example 446]
10 | 4870 | 2 | CNC(=O)CN1CCCC(c2ccc3[nH]c(-c4cc(OC)c5ncnn5c4)c(C(C)C)c3c2)C1 (stereo not drawn) [Example 228]
7.1 | 3280 | 1 | CNCC(=O)N1CCOC(c2ccc3[nH]c(-c4cc(C)c5ncnn5c4)c(C(C)C)c3c2)C1 (stereo not drawn) [Example 337, 1-(2-(3-isopropyl-2-(8-methyl-[1,2,4]triazolo[1,5-a]pyridin-6-yl)-1H-indol-5-yl)morpholino)-2-(methylamino)ethanone]
1.1 | 10100 | 2 | Cc1cc(-c2[nH]c3ccc(C4CN(C)CCO4)cc3c2C(C)C)cn2ncnc12 (stereo not drawn) [Example 293]
2.5 | 4440 | 0.41 | COc1cc(-c2[nH]c3ccc(C4CCC(NC(=O)CN5CC6(COC6)C5)CC4)cc3c2C(C)C)cn2ncnc12 (stereo not drawn) [Example 138]
